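Cultured in 96-well plates, cells were exposed to test compound for 48 hours across five concentrations. Abbreviation: GI50, concentration required for 50% inhibition of growth.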 Active and inactive are the calls of the source. Cut-off read from the data, not from the text of the source: active = GI50 up to about 1.1 µM and inactive = higher.
Tests used:
Experiment in all cases: inhibition of tumour cell growth, NCI panel, 48 h
786-0 = test system: 786-0
A549 = test system: A549
DU-145 = test system: DU-145
HCT-116 = test system: HCT-116
HCT-15 = test system: HCT-15
HT-29 = test system: HT-29
LOX IMVI = test system: LOX IMVI
MDA-MB-435 = test system: MDA-MB-435
MOLT-4 = test system: MOLT-4
Malme-3M = test system: Malme-3M
NCI-H226 = test system: NCI-H226
RPMI-8226 = test system: RPMI-8226
SF-295 = test system: SF-295
SK-MEL-2 = test system: SK-MEL-2
SR = test system: SR
TK-10 = test system: TK-10
U-251 = test system: U-251
UACC-257 = test system: UACC-257
UACC-62 = test system: UACC-62
UO-31 = test system: UO-31

Row | Compound | GI50 (786-0) | GI50 (A549) | GI50 (DU-145) | GI50 (HCT-116) | GI50 (HCT-15) [µM] | GI50 (HT-29) | GI50 (LOX IMVI) | GI50 (MDA-MB-435) | GI50 (MOLT-4) | GI50 (Malme-3M) | GI50 (NCI-H226) | GI50 (RPMI-8226) | GI50 (SF-295) | GI50 (SK-MEL-2) | GI50 (SR) | GI50 (TK-10) | GI50 (U-251) | GI50 (UACC-257) | GI50 (UACC-62) | GI50 (UO-31)
1 | Cc1sc2c(c1C)C(=O)c1cccn1-2 | 87.7 µM (inactive) | 60.5 µM (inactive) | 95.3 µM (inactive) | 61.2 µM (inactive) | > 100 | 53.8 µM (inactive) | 64.9 µM (inactive) | 56.6 µM (inactive) | 38.8 µM (inactive) | > 100 µM (inactive) | > 100 µM (inactive) | 50.7 µM (inactive) | > 100 µM (inactive) | > 100 µM (inactive) | 19.3 µM (inactive) | > 100 µM (inactive) | 61.7 µM (inactive) | > 100 µM (inactive) | 62.7 µM (inactive) | 54.7 µM (inactive)
2 | CC(C)(C)c1ccc(S(=O)(=O)N2C(c3cccc(C4CC[C@@H](C(=O)O)N4S(=O)(=O)c4ccc(C(C)(C)C)cc4)c3)CC[C@H]2C(=O)O)cc1 (some centres undefined) | 49.4 µM (inactive) | 66.7 µM (inactive) | 75.3 µM (inactive) | 38.1 µM (inactive) | 43.2 | 47.8 µM (inactive) | 79.4 µM (inactive) | 54.7 µM (inactive) | 33 µM (inactive) | 87.1 µM (inactive) | 71.9 µM (inactive) | 34.5 µM (inactive) | 45.8 µM (inactive) | 30.1 µM (inactive) | 33.1 µM (inactive) | 65.5 µM (inactive) | 38.9 µM (inactive) | 53 µM (inactive) | 44.9 µM (inactive) | 33.5 µM (inactive)
3 | C/C(=N\NC(N)=S)c1ccc2c(c1)Sc1ccccc1O2 | 3.18 µM (inactive) | 2.5 µM (inactive) | 28.1 µM (inactive) | 2.69 µM (inactive) | 0.593 | 1.61 µM (inactive) | 2.62 µM (inactive) | 0.29 µM (active) | 2.54 µM (inactive) | 5.53 µM (inactive) | 9.23 µM (inactive) | 2.16 µM (inactive) | 4.63 µM (inactive) | 2.11 µM (inactive) | 0.485 µM (active) | 3.73 µM (inactive) | 2.37 µM (inactive) | 6.14 µM (inactive) | 2.42 µM (inactive) | 2.88 µM (inactive)
4 | CC1=CC[C@H](C[C@H](C#CCCCC2OCCO2)O[Si](C(C)C)(C(C)C)C(C)C)C(=O)CC1 | > 100 µM (inactive) | > 100 µM (inactive) | > 100 µM (inactive) | > 100 µM (inactive) | > 100 | > 100 µM (inactive) | > 100 µM (inactive) | > 100 µM (inactive) | > 100 µM (inactive) | > 100 µM (inactive) | > 100 µM (inactive) | > 100 µM (inactive) | > 100 µM (inactive) | > 100 µM (inactive) | > 100 µM (inactive) | > 100 µM (inactive) | > 100 µM (inactive) | > 100 µM (inactive) | > 100 µM (inactive) | > 100 µM (inactive)
5 | Cc1ccc(S(=O)(=O)N/N=C/C2(c3ccccc3)c3ccccc3-c3ccccc32)cc1 | 12.1 µM (inactive) | 5.74 µM (inactive) | 12.1 µM (inactive) | 7.08 µM (inactive) | 9.27 | 12.5 µM (inactive) | 12.7 µM (inactive) | 11 µM (inactive) | 7.18 µM (inactive) | 5.42 µM (inactive) | 14.7 µM (inactive) | 7.45 µM (inactive) | 3.21 µM (inactive) | 12.2 µM (inactive) | 7.45 µM (inactive) | 20.9 µM (inactive) | 11.8 µM (inactive) | 15.6 µM (inactive) | 11.2 µM (inactive) | 5.82 µM (inactive)
6 | CC(C)Cc1ccc(C(C)/C=C2\CCC(CN3CCOCC3)C2=O)cc1 (centres undefined) | 1.69 µM (inactive) | 18.6 µM (inactive) | 13.7 µM (inactive) | 5.26 µM (inactive) | 2.94 | 6.73 µM (inactive) | 2.33 µM (inactive) | 6.92 µM (inactive) | 1.64 µM (inactive) | 13.5 µM (inactive) | 20.3 µM (inactive) | 0.665 µM (active) | 15.3 µM (inactive) | 16.6 µM (inactive) | 2.08 µM (inactive) | 5.82 µM (inactive) | 13.5 µM (inactive) | 7.14 µM (inactive) | 12.5 µM (inactive) | 8.73 µM (inactive)
7 | CC12CCC(C(=O)OC1=O)C2(C)C (centres undefined) | > 100 µM (inactive) |  | > 100 µM (inactive) | > 100 µM (inactive) | > 100 | > 100 µM (inactive) | > 100 µM (inactive) | > 100 µM (inactive) | > 100 µM (inactive) | > 100 µM (inactive) | > 100 µM (inactive) | > 100 µM (inactive) | > 100 µM (inactive) | 28.7 µM (inactive) | 0.628 µM (active) | > 100 µM (inactive) | > 100 µM (inactive) | 8.81 µM (inactive) | > 100 µM (inactive) | > 100 µM (inactive)

Reference: ChEMBL document CHEMBL1201862, “PubChem BioAssay data set” (2004)
